Results: patent US11001892B2, “Methods of diagnosing endometriosis” (The Regents of the University of California, priority 2007, dated 2021)

What was measured:
[1] = system: eutopic endometrium of women with endometriosis; settings: cited from earlier work
[2] = system: TOB1; settings: cultured human endometrial stromal cells from women with endometriosis; cited from earlier work
[3] = system: pro-MMP-3 or pro-MMP-7 secretion; settings: in vitro treatment of endometrial tissues from women with endometriosis; cited from earlier work
[4] = system: ERK; assay: ERK 1/2 phosphorylation in cultured eutopic endometrial stromal cells; format: cell-based, human; settings: eutopic endometrial stromal cells from patients with endometriosis; treatment within 60 min; level then similar to cells from patients without endometriosis
Description: Growth of ectopic endometrial tissues in the pelvic cavity, which is a hallmark of endometriosis, is associated with elevated levels of inflammatory cytokines and increased number of activated macrophages in the peritoneal environment. […] In this example, the expression of inflammatory-associated genes in cultured eutopic endometrial stromal cells from women with versus without endometriosis was examined using quantitative RT-PCR. […] Interleukin-1 beta and cyclooxygenase-2 mRNA expression were similar in cultured endometrial stromal cells from women with vs. without endometriosis. Cell proliferation was similar in eutopic endometrial stromal cells from women with versus without endometriosis when cultured in 0%, 2%, or 10% charcoal stripped FBS-containing medium or in the presence of insulin. Increased IL-8 production in endometriosis is accompanied by a strong increased phosphorylation of ERK ½ (P=0.04), a signaling molecule shown to activate IL-8 expression in endometrial stromal cells. […] Since phosphorylation of ERK and IL-8 expression increases cell migration and invasion of endometrial stromal cells, dysregulation of MAPK activity and IL-8 expression in the eutopic endometrial stromal cells of women with endometriosis may be associated with the pathophysiology and spread of the disease.

[5] = system: endometrial stromal fibroblasts (ESFs); assay: Regulation of steroidogenic enzymes in ESFs by cAMP and/or E2/P4, Q-PCR; format: cell-based, human
Description: ESFs were isolated from endometrial biopsies from 15 women with and 7 women without endometriosis. […] IGFBP1 and PRL protein secretion was measured by ELISA. […] Purity of ESF populations at passage 2 was evaluated by immunohistochemistry using cytokeratin, vimentin and CD45 antibodies. Endometrial tissue biopsies were obtained from mid-secretory phase endometrium from 5 women without and 5 women with severe endometriosis.

Cn1c(C#N)ccc1-c1ccc2c(c1)C(C)(C)OC(=S)N2 [tanaproget]
progesterone insensitivity of eutopic endometrium of women with endometriosis ([1]; endometrial cell culture and nude mouse models): could be corrected

IL-1β: a central cytokine in endometriosis
TOB1 expression [2]: reduced TOB1 expression

CC(=O)[C@H]1CC[C@H]2[C@@H]3CCC4=CC(=O)CC[C@]4(C)[C@H]3CC[C@]12C [P4, progesterone]
suppression of pro-MMP-3 or pro-MMP-7 secretion [3]: fails to fully suppress | high basal ERK phosphorylation [4]: successfully diminished | prevention of the ability of tissues to establish experimental disease in mice ([1]; endometrial tissues from women with endometriosis treated in vitro): fails to prevent | Cyp17A1 (P450c17) expression ([5]; ESFs from women with vs without endometriosis): slightly down-regulated | Aromatase (Cyp19A1) regulation ([5]; ESFs, cAMP effect in women with endometriosis): not regulated | 3βHSD1 expression ([5]; P4 stimulated ESFs from women with endometriosis): Down regulation
